Measurements published in patent publication US9006440B2, “Furopyridine derivatives” (Merck Patent GmbH, priority 2010, dated 2015).

Tests used:
[1] = target: T1, Syk (Homo sapiens, UniProt P43405); assay: Syk enzyme assay (SYK flash plate assay / Caliper mobility shift); assay type: biochemical
T1 construct: purchased BPS Bioscience, CA, USA
Method: The kinase assay is performed either as 384-well Flashplate assay (for e.g. Topcount measurement) or as 384-well Image-Flashplate assay (for LEADseeker measurement).
2.5 nM SYK, 400 nM Biotin-Aha-Aha-KEDPDYEWPSAKK
and 10 μM ATP (spiked with 0.3 μCi 33P-ATP/well) are incubated in a total volume of 50 μl (60 mM Hepes, 10 mM MgCl2, 1.2 mM Dithiothreitol, 0.02% Brij35, 0.1% BSA, pH 7.5) with or without test compound for 1 hours at 30° C. The reaction is stopped with 25 μl 200 mM EDTA. After 30 Min at 30° C. the liquid is removed and each well washed thrice with 100 μl 0.9% sodium chloride solution. Non-specific reaction is determined in presence of 0.1 μM Staurosporine. Radioactivity is measured with Topcount (when using Flashplates) or with LEADseeker (when using Image-Flashplates) respectively. Results (e.g. IC50-values) are calculated with program tools provided by the IT-department (e.g. Symyx Assay Explorer, Genedata Screener). Enzymatic Assays Using the Caliper LifeSciences Technology
(§1) The assays described here are performed on the Caliper Life Sciences LC3000 system This technology provides data on enzyme activity via measurement of the relative amounts of phosphorylated or unphosphorylated fluorescently labelled substrate peptide at the end of an enzymatic reaction. These different states of peptide are resolved by applying a potential difference across the sample. The presence of the charged phosphate group on the product (as opposed to the substrate) causes a different peptide mobility between the two peptides. This is visualized by excitation of the fluorescent label on the substrate and product peptides and represented as peaks within the analysis software.
(§2) In order to measure inhibitor activity of kinase inhibitors on this technology, a TTP Mosquito liquid handling instrument is used to place 0.25 ul of the appropriate concentration of inhibitor in 100% DMSO (for a dose response curve calculation) into each well of a 384-well plate. To this reaction components are added to a final volume of 25 ul. The table below indicates the sequences and concentrations for the assays described in this report. Standard components are 1 mM DTT (Sigma, D0632), 1 mM MgCl2 (Sigma, M1028), 100 mM HEPES pH 7.5 (Calbiochem, 391338), 0.015% Brij-35 (Sigma, B4184).
(§3) The reaction is incubated for 90 min at 25 C, and then stopped by the addition of 70 ul of Stop buffer (100 mM HEPES pH 7.5, 0.015% Brij-35, 10 mM EDTA (Sigma, E7889)).
(§4) The plate is read on a Caliper LC 3000 in an Off-Chip mobility shift assay format, on a 12-sipper chip. Unphosphorylated substrate and phosphorylated product peptide resolve as separate peaks allowing direct measurement of percentage of conversion of substrate to product. The percent conversion can be plotted against concentration of inhibitor to produce a sigmoidal dose response curve, from which an IC50 can be calculated using GeneData Condoseo or a similar product.

[2] = target: T2, KDR (Homo sapiens, UniProt P35968); assay: KDR enzymatic assay (Caliper LifeSciences technology); assay type: biochemical
T2 construct: purchased BPS Bioscience, CA, USA
Method: as §1, §2, §3, §4

T2 sequence (P35968 20-1356): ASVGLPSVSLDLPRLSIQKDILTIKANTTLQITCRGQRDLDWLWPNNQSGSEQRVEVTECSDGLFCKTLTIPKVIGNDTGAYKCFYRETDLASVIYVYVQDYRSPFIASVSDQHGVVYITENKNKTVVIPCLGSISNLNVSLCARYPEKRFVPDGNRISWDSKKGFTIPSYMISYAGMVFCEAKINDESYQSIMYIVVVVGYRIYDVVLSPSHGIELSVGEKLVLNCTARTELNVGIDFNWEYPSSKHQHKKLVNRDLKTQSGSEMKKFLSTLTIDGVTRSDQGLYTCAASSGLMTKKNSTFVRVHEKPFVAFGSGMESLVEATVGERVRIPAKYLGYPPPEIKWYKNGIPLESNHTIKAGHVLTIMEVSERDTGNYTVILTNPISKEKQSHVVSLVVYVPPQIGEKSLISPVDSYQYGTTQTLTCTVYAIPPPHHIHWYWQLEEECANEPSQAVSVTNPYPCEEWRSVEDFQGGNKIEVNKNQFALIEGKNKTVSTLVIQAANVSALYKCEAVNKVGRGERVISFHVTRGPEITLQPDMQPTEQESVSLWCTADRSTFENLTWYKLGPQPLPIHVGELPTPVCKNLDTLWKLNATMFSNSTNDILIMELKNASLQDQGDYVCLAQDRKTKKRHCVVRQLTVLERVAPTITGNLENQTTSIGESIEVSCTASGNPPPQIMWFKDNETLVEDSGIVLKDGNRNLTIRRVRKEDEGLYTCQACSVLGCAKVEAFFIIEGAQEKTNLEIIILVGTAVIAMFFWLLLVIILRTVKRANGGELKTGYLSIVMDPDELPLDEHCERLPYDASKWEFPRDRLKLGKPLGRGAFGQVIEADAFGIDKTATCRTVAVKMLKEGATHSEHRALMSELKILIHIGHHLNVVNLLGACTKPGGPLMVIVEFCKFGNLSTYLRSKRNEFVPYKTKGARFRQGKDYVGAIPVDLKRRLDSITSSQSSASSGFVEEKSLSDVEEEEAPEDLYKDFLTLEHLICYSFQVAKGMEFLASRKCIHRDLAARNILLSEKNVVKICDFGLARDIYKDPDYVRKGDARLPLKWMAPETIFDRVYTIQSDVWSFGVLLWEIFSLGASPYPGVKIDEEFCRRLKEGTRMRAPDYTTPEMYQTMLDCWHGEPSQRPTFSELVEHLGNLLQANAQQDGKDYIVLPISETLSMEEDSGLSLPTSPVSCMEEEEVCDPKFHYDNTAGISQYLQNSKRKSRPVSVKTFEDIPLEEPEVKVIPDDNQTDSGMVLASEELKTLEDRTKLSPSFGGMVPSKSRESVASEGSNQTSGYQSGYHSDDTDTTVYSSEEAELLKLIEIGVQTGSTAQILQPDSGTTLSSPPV

Q: With `CNC(=O)c1ccc(-c2ccnc3cc(-c4cc(OC)c(OC)c(OC)c4)oc23)cc1` [Compound A13, N-Methyl-4-[2-(3,4,5-trimethoxy-phenyl)-furo[3,2-b]pyridin-7-yl]-benzamide] as the compound, how does the IC50 [1] read?
A: < 0.3 µM

Q: What about the IC50 [2] of the same compound?
A: 0.3 to 3 µM

Q: What does the source list for `COC(=O)c1cccc(-c2cc3nccc(-c4ccccc4)c3o2)c1` [Compound A19, 3-(7-Phenyl-furo[3,2-b]pyridin-2-yl)-benzoic acid methyl ester]?
A: IC50 [1]: 3 to 50 µM; IC50 [2]: 3 to 50 µM

Q: What does the source list for `COc1ccc(-c2ccnc3cc(-c4cc(OC)c(OC)c(OC)c4)oc23)c(OC)c1` [Compound A28, 7-(2,4-Dimethoxy-phenyl)-2-(3,4,5-trimethoxy-phenyl)-furo[3,2-b]pyridine]?
A: IC50 [1]: < 0.3 µM; IC50 [2]: 0.3 to 3 µM

Q: For `COc1cc(-c2ccnc3cc(-c4cc(OC)c(OC)c(OC)c4)oc23)ccn1` [Compound A29, 7-(2-Methoxy-pyridin-4-yl)-2-(3,4,5-trimethoxy-phenyl)-furo[3,2-b]pyridine], which IC50 [1] is on record?
A: < 0.3 µM

Q: What about the IC50 [2] of the same compound?
A: 0.3 to 3 µM

Q: With `COc1cc(-c2cc3nccc(-c4cccc(O)c4)c3o2)cc(OC)c1OC` [Compound A36, 3-[2-(3,4,5-Trimethoxy-phenyl)-furo[3,2-b]pyridin-7-yl]-phenol] as the compound, how does the IC50 [1] read?
A: < 0.3 µM

Q: What about the IC50 [2] of the same compound?
A: 3 to 50 µM

Q: `COc1cc(-c2cc3nccc(-c4ccc(CN)cc4)c3o2)cc(OC)c1OC` [Compound A53, 4-[2-(3,4,5-Trimethoxy-phenyl)-furo[3,2-b]pyridin-7-yl]-benzylamine] was tested. Which IC50 [1] did it give?
A: < 0.3 µM

Q: And the IC50 [2]?
A: 0.3 to 3 µM

Q: What does the source list for `COc1cc(-c2cc3nccc(Nc4ccc5c(c4)NC(=O)C(F)(F)O5)c3o2)cc(OC)c1OC` [Compound B10, 2,2-Difluoro-6-[2-(3,4,5-trimethoxy-phenyl)-furo[3,2-b]pyridin-7-ylamino]-4H-benzo[1,4]oxazin-3-one]?
A: IC50 [1]: 0.3 to 3 µM; IC50 [2]: < 0.3 µM

Q: How did the IC50 [1] turn out when `COc1cccc(-c2cc3nccc(-c4cccc(OC)c4)c3o2)c1` [Compound B43, 2,7-Bis-(3-methoxy-phenyl)-furo[3,2-b]pyridine] was run?
A: 3 to 50 µM

Q: And the IC50 [2]?
A: 3 to 50 µM

Q: Which IC50 [1] does the source give for `CC(C)(O)c1ccc(-c2cc3nccc(-c4ccc(C(C)(C)O)cc4)c3o2)cc1` [Compound B45, 2-(4-{2-[4-(1-Hydroxy-1-methyl-ethyl)-phenyl]-furo[3,2-b]pyridin-7-yl}-phenyl)-propan-2-ol] here?
A: 0.3 to 3 µM

Q: What about the IC50 [2] of the same compound?
A: 0.3 to 3 µM

Q: `Oc1cccc(-c2cc3nccc(-c4ccccc4)c3o2)c1` [Compound C1] was tested. Which IC50 [1] did it give?
A: 0.3 to 3 µM

Q: How did the IC50 [1] turn out when `COc1cc(-c2cc3nccc(-c4cccc(C(=O)NCCO)c4)c3o2)cc(OC)c1OC` [Compound C5] was run?
A: < 0.3 µM

Q: `CC(C)Cn1cc(-c2cc3nccc(-c4cnn(C)c4)c3o2)cn1` [Compound C6] was tested. Which IC50 [1] did it give?
A: 0.3 to 3 µM

Q: `COc1cc(-c2cc3nccc(-c4cccc(C(=O)NCC5CCCN5C(=O)OC(C)(C)C)c4)c3o2)cc(OC)c1OC` (stereo not shown) [Compound C7] was tested. Which IC50 [1] did it give?
A: 0.3 to 3 µM

Q: With `CNC(=O)COc1cccc(-c2ccnc3cc(-c4cc(OC)c(OC)c(OC)c4)oc23)c1` [Compound C8] as the compound, how does the IC50 [1] read?
A: < 0.3 µM

Q: `Cc1cc(-c2cc3nccc(-c4cnn(C)c4)c3o2)cc(C(C)(C)C)c1` [Compound C9] was tested. Which IC50 [1] did it give?
A: 0.3 to 3 µM

Q: `COc1cc(-c2cc3nccc(-c4cccc(C(=O)NCc5cc[nH]n5)c4)c3o2)cc(OC)c1OC` [Compound C10] was tested. Which IC50 [1] did it give?
A: < 0.3 µM

Q: `COc1cc(-c2cc3nccc(-c4cccnc4)c3o2)cc(OC)c1OC` [Compound C13] was tested. Which IC50 [1] did it give?
A: < 0.3 µM

Q: How did the IC50 [1] turn out when `COc1cc(-c2cc3nccc(-c4ccccc4C(C)C)c3o2)cc(OC)c1OC` [Compound C14] was run?
A: 0.3 to 3 µM

Q: With `COc1cccc(-c2cc3nccc(-c4ccccc4)c3o2)c1` [Compound C15] as the compound, how does the IC50 [1] read?
A: 0.3 to 3 µM

Q: With `COc1cc(-c2cc3nccc(-c4cnn(C)c4)c3o2)ccn1` [Compound C16] as the compound, how does the IC50 [1] read?
A: 0.3 to 3 µM

Q: Which results are given for `Cn1cc(-c2ccnc3cc(-c4ccc5c(c4)OCCO5)oc23)cn1` [Compound C17]?
A: IC50 [1]: 0.3 to 3 µM; IC50 [2]: 0.3 to 3 µM

Q: With `Cn1cc(-c2ccnc3cc(-c4ccc5[nH]ccc5c4)oc23)cn1` [Compound C18] as the compound, how does the IC50 [1] read?
A: 0.3 to 3 µM

Q: What about the IC50 [2] of the same compound?
A: 0.3 to 3 µM

Q: How did the IC50 [1] turn out when `Cn1cc(-c2ccnc3cc(-c4ccc5cc[nH]c5c4)oc23)cn1` [Compound C19] was run?
A: < 0.3 µM

Q: And the IC50 [2]?
A: 3 to 50 µM

Q: How did the IC50 [1] turn out when `Cn1cc(-c2ccnc3cc(-c4cccc(OCc5ccccc5)c4)oc23)cn1` [Compound C20] was run?
A: 3 to 50 µM

Q: How did the IC50 [1] turn out when `Cc1noc(C)c1-c1cc2nccc(-c3cnn(C)c3)c2o1` [Compound C22] was run?
A: 0.3 to 3 µM

Q: With `COc1cc(-c2cc3nccc(-c4cnc(F)cc4C)c3o2)cc(OC)c1OC` [Compound C23] as the compound, how does the IC50 [1] read?
A: < 0.3 µM

Q: Which IC50 [1] does the source give for `Cn1cc(-c2ccnc3cc(-c4ccc(N5CCOCC5)nc4)oc23)cn1` [Compound C24] here?
A: 0.3 to 3 µM

Q: And the IC50 [2]?
A: 0.3 to 3 µM

Q: `c1ccc(-c2ccnc3cc(-c4ccc(N5CCOCC5)nc4)oc23)cc1` [Compound C25] was tested. Which IC50 [1] did it give?
A: 0.3 to 3 µM

Q: Which IC50 [1] does the source give for `COc1cc(-c2cc3nccc(-c4ccc(OC5CCOCC5)nc4)c3o2)cc(OC)c1OC` [Compound C28] here?
A: 0.3 to 3 µM

Q: For `O=C(Nc1cccc(-c2cc3nccc(-c4ccccc4)c3o2)c1)[C@@H]1CCCN1` [Compound C31], which IC50 [1] is on record?
A: 0.3 to 3 µM

Q: What about the IC50 [2] of the same compound?
A: 0.3 to 3 µM

Q: `Cn1cc(-c2ccnc3cc(-c4ccc(OC(F)(F)F)cc4)oc23)cn1` [Compound C32] was tested. Which IC50 [1] did it give?
A: 0.3 to 3 µM

Q: `COc1ccc(-c2cc3nccc(-c4cnn(C)c4)c3o2)cc1` [Compound C33] was tested. Which IC50 [1] did it give?
A: 0.3 to 3 µM

Q: And the IC50 [2]?
A: 0.3 to 3 µM

Q: For `Cn1cc(-c2ccnc3cc(-c4ccc(S(C)(=O)=O)cc4)oc23)cn1` [Compound C34], which IC50 [1] is on record?
A: 0.3 to 3 µM

Q: And the IC50 [2]?
A: 3 to 50 µM

Q: `Cn1cc(-c2ccnc3cc(-c4ccc(OCCN5CCCCC5)cc4)oc23)cn1` [Compound C36] was tested. Which IC50 [1] did it give?
A: 0.3 to 3 µM

Q: What does the source list for `Cn1cc(-c2ccnc3cc(-c4ccc(OCC(O)CN5CCOCC5)cc4)oc23)cn1` (stereo not shown) [Compound C37]?
A: IC50 [1]: 0.3 to 3 µM; IC50 [2]: 0.3 to 3 µM

Q: Which IC50 [1] does the source give for `Cn1cc(-c2ccnc3cc(-c4ccc(OCC(O)CN5CCCCC5)cc4)oc23)cn1` (stereo not shown) [Compound C38] here?
A: 0.3 to 3 µM

Q: For `c1cncc(-c2ccnc3cc(-c4ccc(N5CCOCC5)nc4)oc23)c1` [Compound C39], which IC50 [1] is on record?
A: 3 to 50 µM

Q: Which IC50 [1] does the source give for `c1ccc(-c2ccnc3cc(-c4ccc(N5CCOCC5)cc4)oc23)cc1` [Compound C50] here?
A: 0.3 to 3 µM

Q: With `Cn1cc(-c2ccnc3cc(-c4ccc([S+](C)[O-])cc4)oc23)cn1` (stereo not shown) [Compound C54] as the compound, how does the IC50 [1] read?
A: 0.3 to 3 µM

Q: `COc1cc(-c2cc3nccc(-c4ccc5[nH]c(=O)[nH]c5c4)c3o2)cc(OC)c1OC` [Compound C56] was tested. Which IC50 [1] did it give?
A: < 0.3 µM

Q: Which IC50 [1] does the source give for `COc1cc(-c2cc3nccc(-c4cnc(N)cc4C)c3o2)cc(OC)c1OC` [Compound C75] here?
A: 0.3 to 3 µM

Q: Which IC50 [1] does the source give for `COc1cc(-c2cc3nccc(-c4csc(N(C)C)n4)c3o2)cc(OC)c1OC` [Compound C79] here?
A: 0.3 to 3 µM

Q: `COc1cc(-c2cc3nccc(-c4ccccc4O)c3o2)cc(OC)c1OC` [Compound C85] was tested. Which IC50 [1] did it give?
A: < 0.3 µM

Q: With `COc1cc(-c2cc3nccc(-c4ccc5[nH]c(-c6cn[nH]c6)nc5c4)c3o2)cc(OC)c1OC` [Compound C90] as the compound, how does the IC50 [1] read?
A: < 0.3 µM

Q: `CC(=O)c1ccc(-c2cc3nccc(-c4cnn(C)c4)c3o2)cc1` [Compound C95] was tested. Which IC50 [1] did it give?
A: 0.3 to 3 µM

Q: `CN1CCN(c2cc(-c3cc4nccc(-c5ccnc(N6CCN(C)CC6)c5)c4o3)ccn2)CC1` [Compound C96] was tested. Which IC50 [1] did it give?
A: 3 to 50 µM

Q: `Cn1cc(-c2ccnc3cc(-c4ccc(C(C)(C)O)cc4)oc23)cn1` [Compound C100] was tested. Which IC50 [1] did it give?
A: < 0.3 µM

Q: `COc1cc(-c2cc3nccc(-c4ccc[nH]4)c3o2)cc(OC)c1OC` [Compound C105] was tested. Which IC50 [1] did it give?
A: 0.3 to 3 µM

Q: For `Cn1cc(-c2ccnc3cc(-c4ccc5cn[nH]c5c4)oc23)cn1` [Compound C133], which IC50 [1] is on record?
A: < 0.3 µM

Q: How did the IC50 [1] turn out when `Cn1ncc2cc(-c3cc4nccc(-c5cccc(C(=O)N[C@@H]6CCCC[C@@H]6N)c5)c4o3)ccc21` [Compound C175] was run?
A: < 0.3 µM
